Experimental data published in patent publication US9012441B2, “Therapeutic compounds” (Gilead Sciences, Inc., priority 2013, dated 2015).

Tests used:
[1] = test system: HIV-IIIb; assay: Test A: Antiviral Assay in MT4 Cells; format: cell-based, HIV-1; details: Human immunodeficiency virus 1, MT4, 120 h, read-out: % Inh @ 2 uM (percent inhibition of virus-induced cell killing); 2 uM test compound; MT-4 cells infected with HIV-IIIb, 5 days, CellTiter-Glo
Experimental: (§1) Test A: Antiviral Assay in MT4 Cells For the antiviral assay, 40 μL of 1× test concentration of 3-fold serially diluted compound in culture medium with 10% FBS was added to each well of a 384-well plate (10 concentrations) in quadruplicate. MT-4 cells were next mixed with HIV-IIIb at an m.o.i of 0.003 for 1 hour, after which time 35 μL of virus/cell mixture (2000 cells) was immediately added to each well containing 40 μL of diluted compound. The plates were then incubated at 37° C. for 5 days. After 5 days of incubation, 25 μl of 2× concentrated CellTiter-Glo™ Reagent (catalog #G7571, Promega Biosciences, Inc., Madison, Wis.) was added to each well containing MT-4 cells. Cell lysis was carried out by incubating at room temperature for 10 min and then chemiluminescence was read. […] Accordingly, the compounds disclosed herein may be useful for treating an HIV virus infection, treating AIDS or for delaying the onset of AIDS or ARC symptoms.

[2] = Test B: Cytotoxicity Assay (uninfected MT-4 cells); format: cell-based; details: human, same protocol as Test A, read-out: MT4-CC50
Experimental: as §1, with “For” for “Test A: Antiviral Assay in MT4 Cells For”, “Test B: Cytotoxicity Assay Compound cytotoxicity and” for “Accordingly,”, “corresponding CC50 values were determined using” for “compounds disclosed herein may be useful for treating an HIV virus infection, treating AIDS or for delaying”, “same protocol as described in the antiviral assay (Test A) except that uninfected cells were used.” for “onset of AIDS or ARC symptoms.”

[3] = from C=CCc1cc(C(F)(F)F)nn1CC(=O)N[C@@H](Cc1cccc(Br)c1)C(=O)N(C)c1ccc(Cl)cc1; cc_pd bond; Pd(OAc)2 / 2-di-tert-butylphosphino-2'-(N,N-dimethylamino)biphenyl / triethylamine; DMF; 2.81 mM; 120.0 °C; 2 steps

CN(C(=O)[C@@H]1Cc2cccc(c2)CCCc2cc(C(F)(F)F)nn2CC(=O)N1)c1ccc(Cl)cc1 [Example 32]
inhibition at 2 µM [1]: 72.3%
CC50 at 5 days [2]: 22.5 µM
ring closure, yield of all isomers [3]: 15%
